Results from ChEMBL document CHEMBL1201862, “PubChem BioAssay data set” (2004).
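Method: 48-hour compound exposure of cells in 96-well plates, five concentrations, linear interpolation of endpoints. At the GI50, growth is halved.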 Active and inactive are the calls of the source. Rule as the data show it: active = GI50 up to about 1.1 µM and inactive = higher.

Assays:
Experiment in all cases: NCI-60 cell line screen, 48 h
[1] = system: U-251
[2] = system: OVCAR-3
[3] = system: SF-268
[4] = system: NCI-H226
[5] = system: OVCAR-5
[6] = system: SNB-75
[7] = system: TK-10
[8] = system: MDA-MB-435
[9] = system: UACC-257
[10] = system: SW-620
[11] = system: OVCAR-8
[12] = system: HCT-15
[13] = system: M14
[14] = system: A549
[15] = system: SN12C
[16] = system: NCI-H522
[17] = system: ACHN
[18] = system: MOLT-4
[19] = system: Malme-3M
[20] = system: K562

In the case of `COC(=O)C1=CCC[C@H]2[C@@]1(COC(C)=O)CC[C@@H](C)[C@]2(C)CC(=O)c1ccoc1`, the GI50 [1] is reported as 21.2 µM (inactive), the GI50 [2] is reported as 15.7 µM (inactive) and the GI50 [3] is reported as 27.2 µM (inactive). For the same compound, the GI50 [4] was 15.8 µM (inactive), the GI50 [5] was 49 µM (inactive) and the GI50 [6] was 12.7 µM (inactive). For the same compound, the GI50 [7] was 18.2 µM (inactive), the GI50 [8] was 16.7 µM (inactive) and the GI50 [9] was 18.7 µM (inactive). For the same compound, the GI50 [10] was 21.1 µM (inactive), the GI50 [11] was 17.9 µM (inactive) and the GI50 [12] was 13.9 µM. The GI50 [13] was 23.5 µM (inactive), the GI50 [14] was 19 µM (inactive) and the GI50 [15] was 17.8 µM (inactive). The GI50 [16] was 7.87 µM (inactive), the GI50 [17] was 16.9 µM (inactive) and the GI50 [18] was 10.5 µM (inactive).
In the case of `COc1ccccc1N/C(=C\C(=O)C(=O)NC12CC3CC(CC(C3)C1)C2)c1ccccc1`, the GI50 [1] is reported as > 10 µM (inactive), the GI50 [19] is reported as 3.36 µM (inactive) and the GI50 [2] is reported as 5.31 µM (inactive). The GI50 [3] was > 10 µM (inactive), the GI50 [4] was > 10 µM (inactive) and the GI50 [5] was > 10 µM (inactive). For the same compound, the GI50 [6] was > 10 µM (inactive), the GI50 [7] was > 10 µM (inactive) and the GI50 [8] was 7.21 µM (inactive). The GI50 [9] was 9.46 µM (inactive), the GI50 [10] was > 10 µM (inactive) and the GI50 [11] was > 10 µM (inactive). The GI50 [12] was over 10 µM, the GI50 [13] was > 10 µM (inactive) and the GI50 [15] was > 10 µM (inactive). For the same compound, the GI50 [16] was > 10 µM (inactive), the GI50 [17] was > 10 µM (inactive) and the GI50 [18] was > 10 µM (inactive). The GI50 [20] was > 10 µM (inactive).
For `CO[C@H]1O[C@@H]2OC3(C)CCC4[C@H](C)CCC([C@H]1C)[C@]42OO3` (stereo partly specified), the GI50 [1] was > 100 µM (inactive), the GI50 [19] was > 100 µM (inactive) and the GI50 [2] was 78.9 µM (inactive). The GI50 [3] was > 100 µM (inactive), the GI50 [4] was > 100 µM (inactive) and the GI50 [5] was > 100 µM (inactive). The GI50 [6] was 85.9 µM (inactive), the GI50 [8] was > 100 µM (inactive) and the GI50 [9] was > 100 µM (inactive). The GI50 [10] was > 100 µM (inactive), the GI50 [11] was 53.6 µM (inactive) and the GI50 [12] was over 100 µM. The GI50 [13] was > 100 µM (inactive), the GI50 [14] was > 100 µM (inactive) and the GI50 [15] was > 100 µM (inactive). For the same compound, the GI50 [16] was > 100 µM (inactive), the GI50 [17] was > 100 µM (inactive) and the GI50 [18] was 36.6 µM (inactive). For the same compound, the GI50 [20] was 26.5 µM (inactive).
`CC(=O)NNC1=NN(C(C)=O)C2(S1)C(=O)Nc1ccccc12` (stereo unspecified) was tested, and the GI50 [1] was > 100 µM (inactive), the GI50 [19] was > 100 µM (inactive) and the GI50 [2] was > 100 µM (inactive). The GI50 [3] was > 100 µM (inactive), the GI50 [4] was > 100 µM (inactive) and the GI50 [5] was > 100 µM (inactive). The GI50 [6] was 65.8 µM (inactive), the GI50 [7] was > 100 µM (inactive) and the GI50 [8] was > 100 µM (inactive). For the same compound, the GI50 [9] was > 10 µM (inactive), the GI50 [10] was > 100 µM (inactive) and the GI50 [11] was > 100 µM (inactive). The GI50 [12] was over 100 µM, the GI50 [13] was > 100 µM (inactive) and the GI50 [15] was > 100 µM (inactive). For the same compound, the GI50 [16] was > 100 µM (inactive), the GI50 [17] was > 100 µM (inactive) and the GI50 [18] was > 100 µM (inactive). For the same compound, the GI50 [20] was > 100 µM (inactive).
In the case of `Cc1c2c(c(C)n1-c1ccccc1)C(=O)N(CCN1CCN(c3cccc(C(F)(F)F)c3)CC1)C2=O`, the GI50 [1] is reported as 31.3 µM (inactive), the GI50 [19] is reported as > 100 µM (inactive) and the GI50 [2] is reported as > 100 µM (inactive). The GI50 [3] was > 100 µM (inactive), the GI50 [4] was > 100 µM (inactive) and the GI50 [5] was > 100 µM (inactive). For the same compound, the GI50 [6] was > 100 µM (inactive), the GI50 [7] was > 100 µM (inactive) and the GI50 [8] was > 100 µM (inactive). For the same compound, the GI50 [9] was 7.67 µM (inactive), the GI50 [11] was 76.4 µM (inactive) and the GI50 [12] was 17.7 µM. The GI50 [13] was > 100 µM (inactive), the GI50 [14] was 46.6 µM (inactive) and the GI50 [15] was 45 µM (inactive). For the same compound, the GI50 [16] was 14.1 µM (inactive), the GI50 [17] was > 100 µM (inactive) and the GI50 [18] was 6.03 µM (inactive). For the same compound, the GI50 [20] was 5.92 µM (inactive).
For `CC(C)(/N=N/C(C)(C)C(=N)N)C(=N)N`, the GI50 [1] was > 100 µM (inactive), the GI50 [2] was > 100 µM (inactive) and the GI50 [3] was > 100 µM (inactive). For the same compound, the GI50 [4] was > 100 µM (inactive), the GI50 [5] was > 100 µM (inactive) and the GI50 [6] was > 100 µM (inactive). The GI50 [7] was > 100 µM (inactive), the GI50 [8] was > 100 µM (inactive) and the GI50 [9] was > 100 µM (inactive). For the same compound, the GI50 [10] was > 100 µM (inactive), the GI50 [11] was > 100 µM (inactive) and the GI50 [12] was over 100 µM. For the same compound, the GI50 [13] was > 100 µM (inactive), the GI50 [14] was > 100 µM (inactive) and the GI50 [15] was > 100 µM (inactive). The GI50 [16] was > 100 µM (inactive), the GI50 [17] was > 100 µM (inactive) and the GI50 [18] was > 100 µM (inactive). For the same compound, the GI50 [20] was > 100 µM (inactive).
`COc1ccc2c(c1)c1c(n2CCN(C)C)-c2cccc(OC)c2CC1` was tested, and the GI50 [1] was 11.6 µM (inactive), the GI50 [2] was 16.1 µM (inactive) and the GI50 [3] was 17.9 µM (inactive). For the same compound, the GI50 [4] was 4.49 µM (inactive), the GI50 [5] was 15.7 µM (inactive) and the GI50 [6] was 5.43 µM (inactive). The GI50 [7] was 19.2 µM (inactive), the GI50 [8] was 12 µM (inactive) and the GI50 [9] was 17.3 µM (inactive). For the same compound, the GI50 [10] was > 10 µM (inactive), the GI50 [11] was 18.7 µM (inactive) and the GI50 [12] was 15.3 µM. The GI50 [13] was 11 µM (inactive), the GI50 [14] was 12.3 µM (inactive) and the GI50 [15] was 13.7 µM (inactive). The GI50 [16] was 3.88 µM (inactive), the GI50 [17] was 17.9 µM (inactive) and the GI50 [18] was 7.14 µM (inactive). The GI50 [20] was 2.02 µM (inactive).
In the case of `COc1cc2c(c(OC3OC(CO)C(O)C(O)C3O)c1)C(=O)CC(c1ccc(O)cc1)O2` (stereo unspecified), the GI50 [1] is reported as > 100 µM (inactive), the GI50 [2] is reported as > 100 µM (inactive) and the GI50 [3] is reported as > 100 µM (inactive). The GI50 [4] was > 100 µM (inactive), the GI50 [5] was > 100 µM (inactive) and the GI50 [6] was > 100 µM (inactive). The GI50 [7] was > 100 µM (inactive), the GI50 [8] was > 100 µM (inactive) and the GI50 [9] was > 100 µM (inactive). For the same compound, the GI50 [10] was > 100 µM (inactive), the GI50 [11] was > 100 µM (inactive) and the GI50 [12] was over 100 µM. For the same compound, the GI50 [13] was > 100 µM (inactive), the GI50 [14] was > 100 µM (inactive) and the GI50 [15] was > 100 µM (inactive). The GI50 [16] was > 100 µM (inactive), the GI50 [17] was > 100 µM (inactive) and the GI50 [18] was > 100 µM (inactive). The GI50 [20] was > 100 µM (inactive).
